One assay relates to TRPMLs. The note with it: high concentrations needed; background statement; cited from earlier work.
In a further assay the target is T1, Human TRPML3 (Homo sapiens, UniProt Q8TDD5).
T1 construct: expressed in transfected cells
T1 sequence (Q8TDD5 1-553): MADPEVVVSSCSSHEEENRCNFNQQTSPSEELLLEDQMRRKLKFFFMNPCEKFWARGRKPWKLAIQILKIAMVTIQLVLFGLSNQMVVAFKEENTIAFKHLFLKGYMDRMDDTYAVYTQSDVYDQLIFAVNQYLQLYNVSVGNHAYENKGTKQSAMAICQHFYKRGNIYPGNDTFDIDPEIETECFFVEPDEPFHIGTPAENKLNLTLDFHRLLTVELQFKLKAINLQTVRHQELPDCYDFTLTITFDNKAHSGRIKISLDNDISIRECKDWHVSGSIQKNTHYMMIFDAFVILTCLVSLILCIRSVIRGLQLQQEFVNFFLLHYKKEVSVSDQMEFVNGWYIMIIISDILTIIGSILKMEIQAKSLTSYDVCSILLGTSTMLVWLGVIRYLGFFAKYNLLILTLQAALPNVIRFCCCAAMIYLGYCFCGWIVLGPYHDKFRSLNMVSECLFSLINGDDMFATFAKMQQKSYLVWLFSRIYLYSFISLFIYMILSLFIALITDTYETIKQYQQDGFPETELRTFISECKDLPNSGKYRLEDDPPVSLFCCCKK
Description: Fluorescent TRPML3 assay (as for TRPML1). The settings on record: fluorescent calcium assay as for TRPML1, TRPML3 subtype. In kind it is cell-based. The method in brief:
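Tet-inducible HEK-293 Trex cells expressing human TRPML2 or TRPML3, induced overnight with 0.5 μg/mL doxycycline, loaded with 1 μM Fluo4-AM and suspended in Ringer's solution with 10 mM calcium. Compounds tested in triplicate from 20 μM to 6 nM final in half-log steps; fluorescence at 480/540 nm. EC50 by non-linear regression, binned A–D.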

The target of the next assay is T2, Human TRPML2 (Homo sapiens, UniProt Q8IZK6).
T2 construct: expressed in transfected cells
T2 sequence (Q8IZK6 1-566): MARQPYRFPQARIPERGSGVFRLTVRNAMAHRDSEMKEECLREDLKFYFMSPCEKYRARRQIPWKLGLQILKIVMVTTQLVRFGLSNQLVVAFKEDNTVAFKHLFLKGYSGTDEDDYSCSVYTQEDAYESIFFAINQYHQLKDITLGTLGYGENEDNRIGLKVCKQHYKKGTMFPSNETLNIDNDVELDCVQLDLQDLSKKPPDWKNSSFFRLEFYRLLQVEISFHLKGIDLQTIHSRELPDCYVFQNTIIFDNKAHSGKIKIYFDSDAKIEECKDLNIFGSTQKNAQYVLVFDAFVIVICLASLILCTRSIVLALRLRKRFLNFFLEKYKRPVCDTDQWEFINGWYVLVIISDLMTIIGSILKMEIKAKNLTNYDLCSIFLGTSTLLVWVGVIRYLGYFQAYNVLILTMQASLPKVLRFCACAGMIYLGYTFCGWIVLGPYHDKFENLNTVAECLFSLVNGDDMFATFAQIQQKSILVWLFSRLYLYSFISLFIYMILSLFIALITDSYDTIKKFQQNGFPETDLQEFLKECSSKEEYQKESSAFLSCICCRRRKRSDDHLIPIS
Description: Fluorescent TRPML2 assay (as for TRPML1). In kind it is cell-based. The settings on record: fluorescent calcium assay as for TRPML1, TRPML2 subtype. The procedure:
HEK-293 Trex cells were stably transfected with a construct consisting of the human coding sequence for TRPML1 cloned into the tet-inducible plasmid pCDNA5 T/O. Mutations were introduced into the TRPML1 sequence to facilitate expression on the cell surface (Silvia Vergarajauregui, Rosa Puertollano Traffic. 2006 March; 7(3): 337-353). Briefly, the cells are cultured in 150 mm round tissue culture dishes containing 20 mL of media. The day before the assay the cells are rinsed with DPBS-Ca-Mg and then treated briefly with Trypsin-EDTA. The Trypsin-EDTA is diluted with growth media, and cells are counted. 38×10^6 cells are re-plated into 150 mm round tissue culture dishes in media containing 0.5 μg/mL doxycycline to induce expression of hTRPML1.
The day of the experiment cells are lifted from the plates as above and collected by centrifugation. The cells are then suspended in dye loading buffer consisting of Ringer's solution supplemented with 0.1% Pluronic Acid and 1 micromolar Fluo4-AM dye. Cells are loaded for ~60 minutes in the dark with occasional mixing. The cells are collected by centrifugation, the loading media aspirated, and the cells resuspended in 25 mL Ringer's solution and incubated ~60 minutes in the dark. The cells are again collected by centrifugation, rinsed in Ringer's Solution and resuspended to 0.2×10^6 cells/mL in modified Ringer's solution containing 10 mM calcium.
Compounds are dissolved to a concentration of 10 millimolar with DMSO. Compound plates are created by dispensing compounds into 384 well black wall clear bottom plates (Greiner 781091). Positive and negative controls are included on each plate. Typically, different amounts of each compound are tested ranging from 100 nanoMoles (20 micromolar final concentration) decreasing in half-log steps to 31 picoMoles (6 nanomolar final concentration). Each concentration is typically tested in triplicate.
50 microliters of dye-loaded cells are dispensed into each well of the compound assay plate created above. The fluorescence in each well is then determined with an excitation wavelength of 480 nm and an emission wavelength of 540 nm using either a Molecular Devices SpectraMax multimode plate reader or a Hamamatsu FDSS/uCell plate imager.
The resulting fluorescence for each well is exported as an ascii file and loaded into our LIMS for analysis. The percent activity of each compound at each concentration is determined by comparison to the positive and negative control wells included in each plate.
Assays for TRPML2 and TRPML3 were performed as above for TRPML1, by substituting the appropriate TRPML2 or TRPML3 subtype for the TRPML1.
EC50 values were calculated using a non-linear regression of Prism. In the table, “A” indicates an EC50 of less than 100 nM, “B” indicates an EC50 range from 100 nM to 500 nM: “C” indicates an EC50 range from 500 nM to 2 μM; and “D” indicates an EC50 greater than 2 μM.

The next assay has as its target Human TRPML1 (Homo sapiens, UniProt Q9GZU1, L15A/L16A/L577A/L578A). Description: Fluorescent TRPML1 assay (Fluo4-AM, HEK-293 Trex cells expressing hTRPML1). The settings on record: fluorescent calcium assay, doxycycline-induced hTRPML1. The assay is classed as cell-based. The method in brief:
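Doxycycline-induced (0.5 μg/mL) HEK-293 Trex cells stably expressing surface-targeted mutant hTRPML1, loaded with 1 μM Fluo4-AM, then suspended in modified Ringer's with 10 mM calcium and added to compounds (20 μM to 6 nM final, half-log steps, triplicate). Fluorescence read at ex 480/em 540; percent activity versus plate controls, EC50 by non-linear regression.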

Human TRPML1, sequence (Q9GZU1 whole entry L15A/L16A/L577A/L578A): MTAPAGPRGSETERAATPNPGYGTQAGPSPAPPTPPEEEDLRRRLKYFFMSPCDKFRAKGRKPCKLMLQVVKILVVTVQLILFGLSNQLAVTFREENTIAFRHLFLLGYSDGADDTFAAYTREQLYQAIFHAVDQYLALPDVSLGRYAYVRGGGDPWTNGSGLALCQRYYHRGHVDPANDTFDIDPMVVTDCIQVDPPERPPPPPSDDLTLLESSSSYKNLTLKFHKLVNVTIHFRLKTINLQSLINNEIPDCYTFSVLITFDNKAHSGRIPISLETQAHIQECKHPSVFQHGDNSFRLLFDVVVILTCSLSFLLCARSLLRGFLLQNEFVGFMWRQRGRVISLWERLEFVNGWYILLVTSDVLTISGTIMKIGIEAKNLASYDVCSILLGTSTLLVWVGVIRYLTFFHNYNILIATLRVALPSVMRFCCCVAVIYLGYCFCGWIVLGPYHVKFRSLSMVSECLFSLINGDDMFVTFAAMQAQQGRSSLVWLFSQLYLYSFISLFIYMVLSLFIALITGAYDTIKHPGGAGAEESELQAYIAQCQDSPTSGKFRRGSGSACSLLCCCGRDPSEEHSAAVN

For the compound `CC1CC(C)(C)N(C(=O)CN2C(=O)c3ccccc3C2=O)c2ccccc21` (stereo not shown) [ML-SA1, Mucolipin Synthetic Agonist I], in the assay on TRPMLs, the “concentration needed to effectively activate TRPMLs” value is recorded as ~ 10 μM.
Regarding `C[C@@H]1CN(c2ncnc3c2c(-c2ccncc2)cn3-c2cc(C#N)ccn2)[C@@H](C)CN1C(=O)C1(O)CCCCC1` [Compound 151, 2-(4-((2S,5R)-4-(1-hydroxycyclohexane-1-carbonyl)-2,5-dimethylpiperazin-1-yl)-5-(pyridin-4-yl)-7H-pyrrolo[2,3-d]pyrimidin-7-yl)isonicotinonitrile], the EC50 at Human TRPML3 was 100 to 500 nM; at Human TRPML2, 500 to 2000 nM; at Human TRPML1 it was below 100 nM.
In the case of `C[C@@H]1CN(c2ncnc3c2c(-c2ccccc2F)cn3-c2cc(C#N)ccn2)[C@@H](C)CN1C(=O)C(C)(C)OCC(F)(F)F` [Compound 165, 2-(4-((2S,5R)-2,5-dimethyl-4-(2-methyl-2-(2,2,2-trifluoroethoxy)propanoyl)piperazin-1-yl)-5-(2-fluorophenyl)-7H-pyrrolo[2,3-d]pyrimidin-7-yl)isonicotinonitrile], the EC50 at Human TRPML3, at Human TRPML2 and at Human TRPML1 was below 100 nM throughout.
Turning to `CCOC(C)(C)C(=O)N1C[C@H](C)N(c2ncnc3c2c(C2CC2)cn3-c2cc(C#N)ccn2)C[C@H]1C` [Compound 172, 2-(5-cyclopropyl-4-((2S,5R)-4-(2-ethoxy-2-methylpropanoyl)-2,5-dimethylpiperazin-1-yl)-7H-pyrrolo[2,3-d]pyrimidin-7-yl)isonicotinonitrile], the EC50 on Human TRPML3 is 500 to 2000 nM; on Human TRPML2 it was 500 to 2000 nM; on Human TRPML1, below 100 nM.
As for `COC1(C(=O)N2C[C@H](C)N(c3ncnc4c3c(-c3ccccc3F)cn4-c3cc(C#N)ccn3)C[C@H]2C)CN(C)C1` [Compound 163, 2-(5-(2-fluorophenyl)-4-((2S,5R)-4-(3-methoxy-1-methylazetidine-3-carbonyl)-2,5-dimethylpiperazin-1-yl)-7H-pyrrolo[2,3-d]pyrimidin-7-yl)isonicotinonitrile], the EC50 on Human TRPML3 was below 100 nM; on Human TRPML2, above 2000 nM; at Human TRPML1, below 100 nM.
As to `Cc1cnccc1-c1cn(-c2cc(C#N)ccn2)c2ncnc(N3C[C@@H](C)N(C(=O)C(C)(C)O)C[C@@H]3C)c12` [Compound 147, 2-(4-((2S,5R)-4-(2-hydroxy-2-methylpropanoyl)-2,5-dimethylpiperazin-1-yl)-5-(3-methylpyridin-4-yl)-7H-pyrrolo[2,3-d]pyrimidin-7-yl)isonicotinonitrile], the EC50 on Human TRPML3 was 500 to 2000 nM; on Human TRPML2 it was above 2000 nM; on Human TRPML1, 500 to 2000 nM.
In the case of `C[C@@H]1CN(c2ncnc3c2c(-c2ccccc2)cn3-c2cc(C#N)ccn2)[C@@H](C)CN1C(=O)C(O)(C(F)(F)F)C(F)(F)F` [Compound 110, 2-(4-((2S,5R)-2,5-dimethyl-4-(3,3,3-trifluoro-2-hydroxy-2-(trifluoromethyl)propanoyl)piperazin-1-yl)-5-phenyl-7H-pyrrolo[2,3-d]pyrimidin-7-yl)isonicotinonitrile], the EC50 on Human TRPML3 is 100 to 500 nM; at Human TRPML2 it was above 2000 nM; on Human TRPML1 it was below 100 nM.
For `C[C@@H]1CN(c2ncnc3c2c(-c2ccccc2F)cn3-c2cc(C#N)ccn2)[C@@H](C)CN1C(=O)C1(O)CCCC1` [Compound 121, 2-(5-(2-fluorophenyl)-4-((2S,5R)-4-(1-hydroxycyclopentane-1-carbonyl)-2,5-dimethylpiperazin-1-yl)-7H-pyrrolo[2,3-d]pyrimidin-7-yl)isonicotinonitrile] the same measures were below 100 nM, 500 to 2000 nM and below 100 nM.
On to `CCOC(C)(C)C(=O)N1C[C@H](C)N(c2ncnc3c2c(-c2ccccc2F)cn3-c2cc(C#N)ccn2)C[C@H]1C` [Compound 164, 2-(4-((2S,5R)-4-(2-ethoxy-2-methylpropanoyl)-2,5-dimethylpiperazin-1-yl)-5-(2-fluorophenyl)-7H-pyrrolo[2,3-d]pyrimidin-7-yl)isonicotinonitrile], for which the EC50 on Human TRPML3, at Human TRPML2 and on Human TRPML1 was below 100 nM in each case.

Broadly, the EC50 is the concentration at which the effect is half-maximal.

Source of the values: US20260285866A1, “MODULATORS OF TRPML, THEIR COMPOSITIONS AND METHODS OF USE” (Caraway Therapeutics, Inc., priority 2024, published 2026).
